ChEMBL document CHEMBL4024706 (Eur J Med Chem, 2017)

What was measured:
[1] = target: Receptor-interacting serine/threonine-protein kinase 1 (Homo sapiens) (UniProt Q13546); assay: Inhibition of wild-type human partial length RIPK1 (M1 to K305 residues) expressed in bacterial expression system assessed as residual activity at 1 uM by Kinomescan method relative to control
[2] = target: Myosin-IIIa (Homo sapiens) (UniProt Q8NEV4); assay: Inhibition of wild-type human partial length MYO3A (M1 to K338 residues) expressed in bacterial expression system assessed as residual activity at 1 uM by Kinomescan method relative to control
[3] = target: Rho-associated protein kinase 1 (Homo sapiens) (UniProt Q13464); assay: Inhibition of wild-type human partial length ROCK1 (M1 to R415 residues) expressed in mammalian expression system assessed as residual activity at 1 uM by Kinomescan method relative to control
[4] = target: Serine/threonine-protein kinase 10 (Homo sapiens) (UniProt O94804); assay: Inhibition of wild-type human partial length LOK (E16 to V314 residues) expressed in bacterial expression system assessed as residual activity at 1 uM by Kinomescan method relative to control
[5] = target: Serine/threonine-protein kinase WNK1 (Homo sapiens) (UniProt Q9H4A3); assay: Inhibition of wild-type human partial length WNK1 (Q194 to A490 residues) expressed in mammalian expression system assessed as residual activity at 1 uM by Kinomescan method relative to control
[6] = target: Non-receptor tyrosine-protein kinase TNK1 (Homo sapiens) (UniProt Q13470); assay: Inhibition of wild-type human full length TNK1 (M1 to P661 residues) expressed in bacterial expression system assessed as residual activity at 1 uM by Kinomescan method relative to control
[7] = target: Serine/threonine-protein kinase MAK (Homo sapiens) (UniProt P20794); assay: Inhibition of wild-type human partial length MAK (M1 to P314 residues) expressed in bacterial expression system assessed as residual activity at 1 uM by Kinomescan method relative to control
[8] = target: Dual specificity mitogen-activated protein kinase kinase 6 (Homo sapiens) (UniProt P52564); assay: Inhibition of wild-type human partial length MEK6 (K36 to D334 residues) expressed in bacterial expression system assessed as residual activity at 1 uM by Kinomescan method relative to control
[9] = target: Interleukin-1 receptor-associated kinase 4 (Homo sapiens) (UniProt Q9NWZ3); assay: Inhibition of wild-type human partial length IRAK4 (M1 to S460 residues) expressed in mammalian expression system assessed as residual activity at 1 uM by Kinomescan method relative to control
[10] = target: Rhodopsin kinase GRK1 (Homo sapiens) (UniProt Q15835); assay: Inhibition of wild-type human full length GRK1 (M1 to S563 residues) expressed in mammalian expression system assessed as residual activity at 1 uM by Kinomescan method relative to control
[11] = target: STE20/SPS1-related proline-alanine-rich protein kinase (Homo sapiens) (UniProt Q9UEW8); assay: Inhibition of wild-type human partial length STK39 (P43 to I357 residues) expressed in mammalian expression system assessed as residual activity at 1 uM by Kinomescan method relative to control
[12] = target: Wee1-like protein kinase 2 (Homo sapiens) (UniProt P0C1S8); assay: Inhibition of wild-type human partial length WEE2 (M204 to K492 residues) expressed in bacterial expression system assessed as residual activity at 1 uM by Kinomescan method relative to control
[13] = target: Tyrosine-protein kinase HCK (Homo sapiens) (UniProt P08631); assay: Inhibition of wild-type human full length HCK (M22 to P526 residues) expressed in bacterial expression system assessed as residual activity at 1 uM by Kinomescan method relative to control
[14] = target: Calcium/calmodulin-dependent protein kinase type IV (Homo sapiens) (UniProt Q16566); assay: Inhibition of wild-type human partial length CAMK4 (A22 to A322 residues) expressed in bacterial expression system assessed as residual activity at 1 uM by Kinomescan method relative to control
[15] = target: Mitogen-activated protein kinase kinase kinase kinase 5 (Homo sapiens) (UniProt Q9Y4K4); assay: Inhibition of wild-type human partial length MAP4K5 (M1 to P297 residues) expressed in bacterial expression system assessed as residual activity at 1 uM by Kinomescan method relative to control
[16] = target: NUAK family SNF1-like kinase 1 (Homo sapiens) (UniProt O60285); assay: Inhibition of wild-type human partial length ARK5 (E25 to I332 residues) expressed in bacterial expression system assessed as residual activity at 1 uM by Kinomescan method relative to control
[17] = target: Calcium/calmodulin-dependent protein kinase type 1 (Homo sapiens) (UniProt Q14012); assay: Inhibition of wild-type human full length CAMK1 (M1 to L370 residues) expressed in bacterial expression system assessed as residual activity at 1 uM by Kinomescan method relative to control
[18] = target: Serine/threonine-protein kinase D3 (Homo sapiens) (UniProt O94806); assay: Inhibition of wild-type human partial length PRKD3 (S543 to E863 residues) expressed in bacterial expression system assessed as residual activity at 1 uM by Kinomescan method relative to control
[19] = target: Casein kinase II subunit alpha' (Homo sapiens) (UniProt P19784); assay: Inhibition of wild-type human full length CSNK2A2 (M1 to R350 residues) expressed in mammalian expression system assessed as residual activity at 1 uM by Kinomescan method relative to control
[20] = target: Dual specificity mitogen-activated protein kinase kinase 4 (Homo sapiens) (UniProt P45985); assay: Inhibition of wild-type human partial length MEK4 (S84 to D399 residues) expressed in mammalian expression system assessed as residual activity at 1 uM by Kinomescan method relative to control
[21] = target: Mitogen-activated protein kinase 4 (Homo sapiens) (UniProt P31152); assay: Inhibition of wild-type human partial length ERK4 (M1 to L365 residues) expressed in bacterial expression system assessed as residual activity at 1 uM by Kinomescan method relative to control
[22] = target: Bone morphogenetic protein receptor type-1B (Homo sapiens) (UniProt O00238); assay: Inhibition of wild-type human partial length BMPR1B (D178 to L502 residues) expressed in mammalian expression system assessed as residual activity at 1 uM by Kinomescan method relative to control
[23] = target: Homeodomain-interacting protein kinase 3 (Homo sapiens) (UniProt Q9H422); assay: Inhibition of wild-type human partial length HIPK3 (M153 to N562 residues) expressed in mammalian expression system assessed as residual activity at 1 uM by Kinomescan method relative to control
[24] = tested on: Epidermal growth factor receptor (Homo sapiens), P00533 [UNDEFINED MUTATION]; assay: Inhibition of human partial length EGFR L747-T751del/Sins mutant expressed in bacterial expression system assessed as residual activity at 1 uM by Kinomescan method relative to control
[25] = target: Testis-specific serine/threonine-protein kinase 3 (Homo sapiens) (UniProt Q96PN8); assay: Inhibition of wild-type human full length TSSK3 (M1 to T268 residues) expressed in mammalian expression system assessed as residual activity at 1 uM by Kinomescan method relative to control

C=CC(=O)Nc1cc(Nc2cc(-c3cccc(NC(=O)c4ccc(C(C)(C)C)cc4)c3C)cn(C)c2=O)ccc1C(=O)N1CCOCC1
Activity [1]: 100%
Activity [2]: 95%
Activity [3]: 100%
Activity [4]: 94%
Activity [5]: 89%
Activity [6]: 92%
Activity [7]: 84%
Activity [8]: 100%
Activity [9]: 100%
Activity [10]: 100%
Activity [11]: 70%
Activity [12]: 100%
Activity [13]: 100%
Activity [14]: 77%
Activity [15]: 100%
Activity [16]: 100%
Activity [17]: 92%
Activity [18]: 100%
Activity [19]: 100%
Activity [20]: 86%
Activity [21]: 95%
Activity [22]: 100%
Activity [23]: 100%
Activity [24]: 100%
Activity [25]: 100%
